Measurements: paper PMC2191575 (The Journal of Experimental Medicine, 1994)

What was measured:
[1] = tested on: chimeric human/mouse MHC class II molecules; type: binding
[2] = tested on: chimeric MHC class II molecules on splenic B cells; type: cell-based, mouse; conditions: overnight incubation of splenic B cells with recombinant IL-4; data not shown

| binding to chimeric MHC class II molecules [1] | Molecule | cell surface level of chimeric MHC class II molecules [2] |
| --- | --- | --- |
| Binding was not observed | OVA (323-339): a peptide that does not bind to DR4Dw4 (ISQAVHAAHAEINEAGR; UniProt P01012 324-340, looked up, fragment) | – |
| Specific binding was also observed | myelin basic protein (90-102): DR-restricted synthetic peptide (HLIRLFSRDAPGR; UniProt P02686 90-102, looked up, fragment) | – |
| – | recombinant IL-4: recombinant IL-4 (protein, UniProt P07750 21-140, looked up) Interleukin-4: HIHGCDKNHLREIIGILNEVTGEGTPCTEMDVPNVLTATKNTTESELVCRASKVLRIFYLKHGKTPCLKKNSSVLMELQRLFRAFRCLDSSISCTMNESKSTSLKDFLESLKSIMQMDYS | increased by three- to fourfold |
